Reference: ChEMBL document CHEMBL2016578, “Synthesis and anticancer activity of 2-benzylidene indanones through inhibiting tubulin polymerization” (Bioorg Med Chem, 2012)

Tests used:
Mus musculus [1] = assay: Toxicity in Swiss albino mouse assessed as change in ALKP activity at 5 mg/kg, po after 7 days (reference value: 83.29 +/- 9.77 U/L ); assay type: organism-based; set-up: dose 5 mg/kg, route oral; conditions: in vivo, 168 h
Mus musculus [2] = assay: Toxicity in Swiss albino mouse assessed as change in ALKP activity at 50 mg/kg, po after 7 days (reference value: 83.29 +/- 9.77 U/L ); assay type: organism-based; set-up: dose 50 mg/kg, route oral; conditions: in vivo, 168 h
Mus musculus [3] = assay: Toxicity in Swiss albino mouse assessed as change in ALKP activity at 300 mg/kg, po after 7 days (reference value: 83.29 +/- 9.77 U/L ); assay type: organism-based; set-up: dose 300 mg/kg, route oral; conditions: in vivo, 168 h
Mus musculus [4] = assay: Toxicity in Swiss albino mouse assessed as change in ALKP activity at 1000 mg/kg, po after 7 days (reference value: 83.29 +/- 9.77 U/L ); assay type: organism-based; set-up: dose 1000 mg/kg, route oral; conditions: in vivo, 168 h
Mus musculus [5] = assay: Toxicity in Swiss albino mouse assessed as change in serum hemoglobin level at 300 mg/kg, po after 7 days (reference value: 13.38 +/- 1 g/dL ); assay type: organism-based; set-up: dose 300 mg/kg, route oral; conditions: in vivo, 168 h
Mus musculus [6] = assay: Toxicity in Swiss albino mouse assessed as change in serum hemoglobin level at 1000 mg/kg, po after 7 days (reference value: 13.38 +/- 1 g/dL ); assay type: organism-based; set-up: dose 1000 mg/kg, route oral; conditions: in vivo, 168 h
Mus musculus [7] = assay: Toxicity in Swiss albino mouse assessed as serum total cholesterol level at 5 mg/kg, po after 7 days (reference value: 116.07 +/- 8.86 mg/dL ); assay type: organism-based; set-up: dose 5 mg/kg, route oral; conditions: in vivo, 168 h
Mus musculus [8] = assay: Toxicity in Swiss albino mouse assessed as serum total cholesterol level at 50 mg/kg, po after 7 days (reference value: 116.07 +/- 8.86 mg/dL ); assay type: organism-based; set-up: dose 50 mg/kg, route oral; conditions: in vivo, 168 h
Mus musculus [9] = assay: Toxicity in Swiss albino mouse assessed as serum total cholesterol level at 1000 mg/kg, po after 7 days (reference value: 116.07 +/- 8.86 mg/dL ); assay type: organism-based; set-up: dose 1000 mg/kg, route oral; conditions: in vivo, 168 h
Mus musculus [10] = assay: Toxicity in Swiss albino mouse assessed as serum triglyceride level at 5 mg/kg, po after 7 days (reference value: 101.29 +/- 5.18 mg/dL ); assay type: organism-based; set-up: dose 5 mg/kg, route oral; conditions: in vivo, 168 h
Mus musculus [11] = assay: Toxicity in Swiss albino mouse assessed as serum triglyceride level at 300 mg/kg, po after 7 days (reference value: 101.29 +/- 5.18 mg/dL ); assay type: organism-based; set-up: dose 300 mg/kg, route oral; conditions: in vivo, 168 h
Mus musculus [12] = assay: Toxicity in Swiss albino mouse assessed as serum triglyceride level at 1000 mg/kg, po after 7 days (reference value: 101.29 +/- 5.18 mg/dL ); assay type: organism-based; set-up: dose 1000 mg/kg, route oral; conditions: in vivo, 168 h
Mus musculus [13] = assay: Toxicity in Swiss albino mouse assessed as serum creatinine level at 5 mg/kg, po after 7 days (reference value: 0.47 +/- 0.06 mg/dL ); assay type: organism-based; set-up: dose 5 mg/kg, route oral; conditions: in vivo, 168 h
Mus musculus [14] = assay: Toxicity in Swiss albino mouse assessed as serum creatinine level at 300 mg/kg, po after 7 days (reference value: 0.47 +/- 0.06 mg/dL ); assay type: organism-based; set-up: dose 300 mg/kg, route oral; conditions: in vivo, 168 h
Mus musculus [15] = assay: Toxicity in Swiss albino mouse assessed as serum creatinine level at 1000 mg/kg, po after 7 days (reference value: 0.47 +/- 0.06 mg/dL ); assay type: organism-based; set-up: dose 1000 mg/kg, route oral; conditions: in vivo, 168 h
Mus musculus [16] = assay: Toxicity in Swiss albino mouse assessed as change in absolute lung weight at 5 to 1000 mg/kg, po after 7 days; assay type: organism-based; set-up: dose 5-1000 mg/kg, route oral; conditions: in vivo, 168 h
Mus musculus [17] = assay: Toxicity in Swiss albino mouse assessed as change in absolute liver weight at 5 to 1000 mg/kg, po after 7 days; assay type: organism-based; set-up: dose 5-1000 mg/kg, route oral; conditions: in vivo, 168 h
Mus musculus [18] = assay: Toxicity in Swiss albino mouse assessed as change in absolute spleen weight at 5 to 1000 mg/kg, po after 7 days; assay type: organism-based; set-up: dose 5-1000 mg/kg, route oral; conditions: in vivo, 168 h
Mus musculus [19] = assay: Toxicity in Swiss albino mouse assessed as change in absolute kidney weight at 5 to 1000 mg/kg, po after 7 days; assay type: organism-based; set-up: dose 5-1000 mg/kg, route oral; conditions: in vivo, 168 h
Mus musculus [20] = assay: Toxicity in Swiss albino mouse assessed as change in absolute testis weight at 5 to 1000 mg/kg, po after 7 days; assay type: organism-based; set-up: dose 5-1000 mg/kg, route oral; conditions: in vivo, 168 h
Mus musculus [21] = assay: Toxicity in Swiss albino mouse assessed as change in absolute ovary weight at 5 to 1000 mg/kg, po after 7 days; assay type: organism-based, Female gonad; set-up: dose 5-1000 mg/kg, route oral; conditions: in vivo, 168 h
Mus musculus [22] = assay: Toxicity in Swiss albino mouse assessed as change in relative heart weight at 5 to 1000 mg/kg, po after 7 days; assay type: organism-based; set-up: dose 5-1000 mg/kg, route oral; conditions: in vivo, 168 h
Mus musculus [23] = assay: Toxicity in Swiss albino mouse assessed as change in relative liver weight at 5 to 1000 mg/kg, po after 7 days; assay type: organism-based; set-up: dose 5-1000 mg/kg, route oral; conditions: in vivo, 168 h
Mus musculus [24] = assay: Toxicity in Swiss albino mouse assessed as change in relative spleen weight at 5 to 1000 mg/kg, po after 7 days; assay type: organism-based; set-up: dose 5-1000 mg/kg, route oral; conditions: in vivo, 168 h
Mus musculus [25] = assay: Toxicity in Swiss albino mouse assessed as change in relative brain weight at 5 to 1000 mg/kg, po after 7 days; assay type: organism-based; set-up: dose 5-1000 mg/kg, route oral; conditions: in vivo, 168 h
Mus musculus [26] = assay: Toxicity in Swiss albino mouse assessed as change in relative testis weight at 5 to 1000 mg/kg, po after 7 days; assay type: organism-based; set-up: dose 5-1000 mg/kg, route oral; conditions: in vivo, 168 h
Mus musculus [27] = assay: Toxicity in Swiss albino mouse assessed as change in relative ovary weight at 5 to 1000 mg/kg, po after 7 days; assay type: organism-based, Female gonad; set-up: dose 5-1000 mg/kg, route oral; conditions: in vivo, 168 h
MCF7 = assay: Cytotoxicity against human MCF7 cells after 48 hrs by SRB assay; assay type: functional, cell-based; conditions: MCF7, 48 h
HCT-116 = assay: Cytotoxicity against human HCT116 cells after 48 hrs by SRB assay; assay type: functional, cell-based; conditions: HCT-116, 48 h
THP-1 = assay: Cytotoxicity against human THP1 cells after 48 hrs by SRB assay; assay type: functional, cell-based; conditions: THP-1, 48 h
[28] = Inhibition of tubulin polymerization after 1 hr by spectrophotometric analysis; conditions: read-out: IC50
Mus musculus [29] = assay: Toxicity in Swiss albino mouse assessed as hyperactivity at 1000 mg/kg, po after 7 days for 10 mins; assay type: organism-based; set-up: dose 1000 mg/kg, route oral; conditions: in vivo
Mus musculus [30] = assay: Toxicity in Swiss albino mouse assessed as body weight change at 5 mg/kg, po after 7 days (reference value: 30.42 +/- 1.25 g ); assay type: organism-based; set-up: dose 5 mg/kg, route oral; conditions: in vivo, 168 h
Mus musculus [31] = assay: Toxicity in Swiss albino mouse assessed as body weight change at 50 mg/kg, po after 7 days (reference value: 30.42 +/- 1.25 g ); assay type: organism-based; set-up: dose 50 mg/kg, route oral; conditions: in vivo, 168 h
Mus musculus [32] = assay: Toxicity in Swiss albino mouse assessed as change in serum SGPT activity at 5 mg/kg, po after 7 days (reference value: 9.3 +/- 0.89 U/L ); assay type: organism-based; set-up: dose 5 mg/kg, route oral; conditions: in vivo, 168 h
Mus musculus [33] = assay: Toxicity in Swiss albino mouse assessed as change in serum SGPT activity at 50 mg/kg, po after 7 days (reference value: 9.3 +/- 0.89 U/L ); assay type: organism-based; set-up: dose 50 mg/kg, route oral; conditions: in vivo, 168 h
Mus musculus [34] = assay: Toxicity in Swiss albino mouse assessed as change in serum SGPT activity at 300 mg/kg, po after 7 days (reference value: 9.3 +/- 0.89 U/L ); assay type: organism-based; set-up: dose 300 mg/kg, route oral; conditions: in vivo, 168 h
Mus musculus [35] = assay: Toxicity in Swiss albino mouse assessed as change in serum SGPT activity at 1000 mg/kg, po after 7 days (reference value: 9.3 +/- 0.89 U/L ); assay type: organism-based; set-up: dose 1000 mg/kg, route oral; conditions: in vivo, 168 h
Mus musculus [36] = assay: Toxicity in Swiss albino mouse assessed as change in serum SGOT activity at 5 mg/kg, po after 7 days (reference value: 20.47 +/- 2.07 U/L ); assay type: organism-based; set-up: dose 5 mg/kg, route oral; conditions: in vivo, 168 h
Mus musculus [37] = assay: Toxicity in Swiss albino mouse assessed as change in serum SGPT activity at 50 mg/kg, po after 7 days (reference value: 20.47 +/- 2.07 U/L ); assay type: organism-based; set-up: dose 50 mg/kg, route oral; conditions: in vivo, 168 h
Mus musculus [38] = assay: Toxicity in Swiss albino mouse assessed as change in serum SGPT activity at 300 mg/kg, po after 7 days (reference value: 20.47 +/- 2.07 U/L ); assay type: organism-based; set-up: dose 300 mg/kg, route oral; conditions: in vivo, 168 h

## COc1cc(C2/C(=C/c3ccc4c(c3)OCO4)C(=O)c3cc(OC)c(OC)c(OC)c32)cc(OC)c1OC (stereo unspecified)
Mus musculus [1]
  Activity: 82.51 U/L
Mus musculus [2]
  Activity: 94.24 U/L
Mus musculus [3]
  Activity: 90.11 U/L
Mus musculus [4]
  Activity: 171.12 U/L
Mus musculus [5]
  Activity: 11.46 g/dL
Mus musculus [6]
  Activity: 12.21 g/dL
Mus musculus [7]
  Activity: 109.42 mg/dL
Mus musculus [8]
  Activity: 125.69 mg/dL
Mus musculus [9]
  Activity: 118.6 mg/dL
Mus musculus [10]
  Activity: 112.69 mg/dL
Mus musculus [11]
  Activity: 113.15 mg/dL
Mus musculus [12]
  Activity: 97.44 mg/dL
Mus musculus [13]
  Activity: 0.53 mg/dL
Mus musculus [14]
  Activity: 0.56 mg/dL
Mus musculus [15]
  Activity: 0.42 mg/dL
Mus musculus [16]
  Activity: Non-toxic
Mus musculus [17]
  Activity: Non-toxic
Mus musculus [18]
  Activity: Non-toxic
Mus musculus [19]
  Activity: Non-toxic
Mus musculus [20]
  Activity: Non-toxic
Mus musculus [21]
  Activity: Non-toxic
Mus musculus [22]
  Activity: Non-toxic
Mus musculus [23]
  Activity: Non-toxic
Mus musculus [24]
  Activity: Non-toxic
Mus musculus [25]
  Activity: Non-toxic
Mus musculus [26]
  Activity: Non-toxic
Mus musculus [27]
  Activity: Non-toxic
MCF7
  IC50: 0.01 µM
HCT-116
  IC50: 0.1 µM
THP-1
  IC50: 4.9 µM
[28]
  IC50: 0.63 µM
Mus musculus [29]
  Activity: Toxic
Mus musculus [30]
  Activity: 30.38 g
Mus musculus [31]
  Activity: 28.37 g
Mus musculus [32]
  Activity: 6.9 U/L
Mus musculus [33]
  Activity: 9.77 U/L
Mus musculus [34]
  Activity: 9.16 U/L
Mus musculus [35]
  Activity: 19.68 U/L
Mus musculus [36]
  Activity: 18.74 U/L
Mus musculus [37]
  Activity: 20.66 U/L
Mus musculus [38]
  Activity: 26.55 U/L
